# Reference: patent US10000498B2, “Selective proton coupled folate transporter and folate receptor, and GARFTase inhibitor compounds and methods of using the same” (Duquesne University of the Holy Spirit, priority 2008, dated 2018)
# Like-named read-outs stand apart in the source and are kept apart here.
# Columns and labels:
# [1] = target: T1, hRFC (Homo sapiens, UniProt P41440); assay: Inhibition of [3H]MTX uptake by RFC in PC43 cells; format: cell-based; conditions: pH 7.2-7.4; not shown
# T1 construct: expressed in transfected cells; host or cells: PC43-10 (CHO subline derived from RFC- and FR-null R2 cells)
# T1 sequence (P41440 1-591): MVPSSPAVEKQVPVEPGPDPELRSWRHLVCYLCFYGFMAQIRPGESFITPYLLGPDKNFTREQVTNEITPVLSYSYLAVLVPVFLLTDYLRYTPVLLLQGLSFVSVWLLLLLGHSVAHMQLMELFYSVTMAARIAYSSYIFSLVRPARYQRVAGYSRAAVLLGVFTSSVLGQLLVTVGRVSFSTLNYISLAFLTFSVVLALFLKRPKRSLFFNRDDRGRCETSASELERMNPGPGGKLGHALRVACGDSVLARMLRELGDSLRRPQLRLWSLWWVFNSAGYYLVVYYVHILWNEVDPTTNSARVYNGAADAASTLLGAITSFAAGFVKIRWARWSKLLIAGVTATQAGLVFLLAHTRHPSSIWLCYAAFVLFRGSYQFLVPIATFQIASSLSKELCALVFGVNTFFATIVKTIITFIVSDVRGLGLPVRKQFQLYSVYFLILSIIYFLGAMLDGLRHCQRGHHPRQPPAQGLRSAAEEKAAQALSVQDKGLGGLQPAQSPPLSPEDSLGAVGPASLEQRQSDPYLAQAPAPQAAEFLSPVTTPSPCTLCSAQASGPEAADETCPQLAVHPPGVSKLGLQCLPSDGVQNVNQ
# [2] = tested on: R2/VC cells (vector control R2 CHO); assay: Growth inhibition of vector control R2 CHO cells (Cell TiterBlue, 96 h); format: cell-based, Chinese hamster; conditions: Cricetulus griseus, read-out: Growth inhibition 50% inhibitory concentration, R2/VC
# [3] = tested on: KB human tumor cells (hRFC/FRα); assay: Growth inhibition of KB human tumor cells (Cell Titer-blue cytotoxicity screen), with or without folic acid; format: cell-based; conditions: for IC50: Homo sapiens
# [4] = target: T2, hPCFT (Homo sapiens, UniProt Q96NT5); assay: Inhibition of [3H]MTX transport by hPCFT; format: cell-based; conditions: initial studies over a range of pH values
# T2 construct: expressed in transfected cells
# T2 sequence (Q96NT5 1-459): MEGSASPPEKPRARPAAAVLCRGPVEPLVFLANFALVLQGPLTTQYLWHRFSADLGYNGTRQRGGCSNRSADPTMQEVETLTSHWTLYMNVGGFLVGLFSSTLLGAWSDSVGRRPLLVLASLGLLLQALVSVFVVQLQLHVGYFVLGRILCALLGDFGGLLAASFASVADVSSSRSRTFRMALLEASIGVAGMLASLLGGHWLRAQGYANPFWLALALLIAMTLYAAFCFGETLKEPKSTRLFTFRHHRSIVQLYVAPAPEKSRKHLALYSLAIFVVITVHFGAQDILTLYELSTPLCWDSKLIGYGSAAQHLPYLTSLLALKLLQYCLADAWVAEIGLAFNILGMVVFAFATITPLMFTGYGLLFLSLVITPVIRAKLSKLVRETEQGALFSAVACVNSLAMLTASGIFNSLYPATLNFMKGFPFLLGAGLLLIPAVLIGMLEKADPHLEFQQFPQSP
# [5] = tested on: RT16 cells (hFRα-expressing Chinese hamster ovary); assay: Growth inhibition of FR-expressing RT16 CHO cells, with or without folic acid; format: cell-based; conditions: for IC50: Cricetulus griseus
smiles,measurement,setting,value
"Nc1nc2[nH]c(CCCCc3ccc(C(=O)N[C@@H](CCC(=O)O)C(=O)O)s3)cc2c(=O)[nH]1 [AAG154353, (S)-2-({5-[4-(2-amino-4-oxo-4,7-dihydro-3H-pyrrolo[2,3-d]pyrimidin-6-yl)-butyl]thiophene-2-carbonyl}-amino)-pentanedioic acid]",Inhibition of [3H]MTX transport from hRFC in pC43-10 cells (in words),[1],negligible inhibition
same,IC50,[2],> 1000 nM
same,Effect of folic acid co-treatment on growth inhibition of KB cells,[3],completely reversed growth inhibition
same,IC50,"[3]; read-out: Growth inhibition (IC50, nM) hRFC/FRα KB",0.25 nM
same,IC50,"[3]; read-out: Growth inhibition (IC50, nM) hRFC/FRα KB (+FA)",> 1000 nM
same,Increased inhibition of hPCFT transport at acid (pH<7) over neutral (pH>7) conditions,[4],2-3 fold
same,Growth inhibition / FR-targeted activity toward RT16 cells (in words),[5],high level of FR-targeted activity
same,IC50,"[5]; RT16, read-out: Growth inhibition (IC50, nM) hFRα RT16",2 nM
same,IC50,"[5]; RT16, read-out: Growth inhibition (IC50, nM) hFRα RT16 (+FA)",> 1000 nM
